Results on 2 compounds are retold here after US6552225B1, “Chemical compounds” (AstraZeneca AB, priority 1999, dated 2003).

Structures are written as SMILES.

For one data set, the system named is PDH. Particulars: cited from earlier work.
The conditions of data set [1]: cited from earlier work.

Usually melting point stands for the temperature, or range, at which the solid turns liquid. The compound `COc1cc(S(=O)(=O)Nc2ccccc2)c(OC)cc1NC(=O)[C@@](C)(O)C(F)(F)F` returned a melting point of 194 to 195 °C.
For `O=C(O)C(Cl)Cl` [DCA, dichloroacetic acid], the “activity of PDH” value in the data set on PDH (after acute administration in animals) is “increases the activity of PDH”. The “proportion of PDH in its active form” value in the data set with PDH (single administration, 150 mg/kg, intraperitoneally) was “increased the proportion of PDH in its active form”. Also, the glycaemia entry in data set [1] (Stacpoole et al., 1978) is given as “reducing glycaemia”. The plasma glucose result in data set [1] (after repeated administration) was “significant decrease in plasma glucose”.
